Results as given in US4663309A, “Novel peptide hormones with calcitonin-like activity” (University Patents, Inc., priority 1985, dated 1987).
Bridge positions count the residues as written; N and C are the ends. Peptide text beside a SMILES is read from it.

Assays:
[1] = Binding to single bilayer egg lecithin vesicles; format: physicochemical; details: for Adsorption to the surface of single bilayer egg lecithin vesicles: 1 to 100 μM peptide, SCT-I at pH 7.4 or pH 3.0; for N, upper limit of bound peptide per vesicle / Kd: 7×10^-4 M lecithin; for N, upper limit of bound peptide per vesicle: pH 7.4; for Kd: pH 7.4, 45 min at 21° C., read-out: K, dissociation constant for vesicle binding; for A∞·N product: A∞ from the monolayer studies in Example 7
Procedure: Egg lecithin single bilayer vesicles (SBVs) were prepared by rapid injection of an ethanolic egg yolk lecithin (Avanti Polar-Lipids Inc., Birmingham, AL) solution into aqueous 0.16M KCl by the method of Batzri, S. and E. D. Korn, Biochim. Biophys. Acta 298:1015(1973) and purified by filtration through a 2.5 cm×87 cm column of Fractogel TSK HW-75(F)™ (Pierce Chemical Co., Rockford, IL). After purification, vesicles were characterized by gel filtration through a 1.5 cm×40 cm column of Sepharose CL-4B™ (Pharmacia Fine Chemicals) by the method of Batzri and Korn, supra. The concentration of vesicles in stock solutions were determined by the phosphate assay of Ames, B. N. and D. T. Dubin, J. Biol. Chem. 235:769(1960). In a typical binding experiment, varying concentrations of peptide were incubated for 45 min at 21° C. with vesicles (7×10^-4 M lecithin) in 0.02M sodium phosphate buffer, pH 7.4 containing 0.16M KCl in a total volume of 300 μl for 45 min. Free peptide was separated from vesicle-bound peptide by rapid filtration through a 1.4 cm×6.3 cm column of Sepharose CL-6B™ (Pharmacia Fine Chemicals) using the same buffer as above the eluent. The concentration of peptide in each fraction was determined using fluorescamine after first disrupting the vesicles with isopropanol (20% by volume).
The data for MCT-I and MCT-II were analyzed according to the equation Pf =(N·V·Pf /Pb)-K (Adamson, A. W., Physical Chemistry of Surfaces, 3rd Ed. (Wiley Interscience, New York, 1976), p. 388), where Pf and Pb are the concentration of free and bound peptide respectively, V is the initial molarity of vesicles (3200 phospholipids per vesicle), N is the upper limit of Pf /V, and K is the dissociation constant. Plots of V·Pf /Pb versus Pf were linear and gave K=12.9±4.8 μM with N=50±5 for MCT-I and K=6.7±1.7 μM, N= 68±2 for MCT-II. The product, A.infin. ·N, where A.infin. was obtained from the monolayer studies in Example 7, are nearly the same (A.infin. ·N(MCT-I) =2.2±0.2×10^4 Å^2, A.infin. ·N(MCT-II) =2.5±0.1×10^4 Å^2), accounting for the difference in observed values of N. A.infin. ·N is also in reasonable agreement with estimates of the available surface area between the phospholipid head groups of 230 Å diameter vesicles (1.8±0.6×10^4 Å^2; Kupferberg, J. P., S. Yokoyama, and F. J. Kezdy, J. Biol. Chem. 256:6274(1981)).

[2] = Surface monolayer studies at the air-water interface; format: physicochemical; details: for Collapse pressure of the monolayer: air-water interface, 0.01M Tris.HCl pH 7.4, 0.1M NaCl
Procedure: For surface monolayer studies, a subphase of 0.01M Tris.HCl, pH 7.4 with 0.1M NaCl was prepared with glass-distilled water. Surfactant contaminants were removed by bubbling air through the solution for 10 min, then aspirating the surface of the buffer. Insoluble monolayers were spread from a 2.8×10^-4 M solution of MCT-I in 0.1 mM HCl. The surface pressure π(dyn/cm) of the MCT-I monomolecular layer was measured as a function of area, A (cm^2), using a Lauda™ film balance (Brinkman Instruments, Norwalk, CT). At the air-water interface, MCT-I and SCT-I form insoluble monolayers when spread from concentrated solutions in 0.01M HCl. The force-area (π-A) curves between 5 and 12 dyn/cm are described by the equation π[A-A.infin. (1-κπ)]=nRT where κ is a constant reflecting the compressibility of the monolayer and A.infin. is the limiting molecular area extrapolated to zero surface pressure. The parameters calculated for the two peptides were very similar, κ=0.016 cm/dyn for MCT-I and 0.02 cm/dyn for SCT-I, while A.infin. =362 Å^2 for MCT-I and A.infin. =322 Å^2 for SCT I. However, the collapse pressure of 24 dyn/cm found for the monolayer of MCT-I was much higher than the value of 14 dyn/cm observed for SCT-I.
Surface monolayer studies were conducted as in Example 4. MCT-II forms stable monolayers at the air-water interface when spread from concentrated solutions in 0.01M HCl. The force-area curve (π-A) between 0 dyn/cm and 21 dyn/cm can be described by the equation π(A-A.infin. (1-κπ))=nRT where A.infin. is the limiting molecular area extrapolated to zero surface pressure and κ is a constant reflecting the compressibility of the monolayer. The parameters calculated using the entire π-A curve indicate that MCT-II forms a compact, relatively rigid structure at the air-water interface. A.infin. was 362±10 Å^2 compared with 434±7 Å^2 for MCT-I and 559±18 Å^2 for SCT-I. Monolayers of SCT-I, MCT-I, and MCT-II were successively less compressible with κ having values of 0.03 cm/dyn for SCT-I, 0.02 cm/dyn for MCT-I, and 0.01 cm/dyn for MCT-II. Collapse of the monolayer occurred at 22 dyn/cm which was slightly lower than the 24 dyn/cm observed for MCT-I and higher than for the SCT-I monolayer which collapses at 12 dyn/cm.

[3] = calculated using the entire π-A curve (Example 7)
[4] = π-A curve between 5 and 12 dyn/cm (Example 4)

Row | SMILES | Adsorption to the surface of single bilayer egg lecithin vesicles [1] | N, upper limit of bound peptide per vesicle [1] | Kd [1] [µM] | A∞·N product [1] | Collapse pressure of the monolayer [2] [dyn/cm] | A∞, limiting molecular area extrapolated to zero surface pressure [2, 3] [Å^2] | κ, compressibility constant of the monolayer [2, 3] [cm/dyn] | A∞, limiting molecular area extrapolated to zero surface pressure [2, 4] [Å^2] | κ, compressibility constant of the monolayer [2, 4] [cm/dyn]
1 | CC(C)C[C@H](NC(=O)[C@H](CCCCN)NC(=O)[C@H](CCC(N)=O)NC(=O)[C@H](CC(C)C)NC(=O)[C@H](CCC(N)=O)NC(=O)[C@H](CCC(N)=O)NC(=O)[C@H](CC(C)C)NC(=O)[C@H](CC(C)C)NC(=O)[C@@H]1CSSC[C@H](N)C(=O)N[C@@H](CO)C(=O)N[C@@H](CC(N)=O)C(=O)N[C@@H](CC(C)C)C(=O)N[C@@H](CO)C(=O)N[C@@H]([C@@H](C)O)C(=O)N1)C(=O)N[C@@H](CC(C)C)C(=O)N[C@@H](CCC(N)=O)C(=O)N[C@@H](CCCCN)C(=O)N[C@@H](CC(C)C)C(=O)N[C@@H](CCCCN)C(=O)N[C@@H](CCC(N)=O)C(=O)N[C@@H](Cc1ccc(O)cc1)C(=O)N1CCC[C@H]1C(=O)N[C@@H](CCCNC(=N)N)C(=O)N[C@H](C(=O)N[C@@H](CC(N)=O)C(=O)N[C@H](C(=O)NCC(=O)N[C@@H](CO)C(=O)NCC(=O)N[C@H](C(=O)N1CCC[C@H]1C(N)=O)[C@@H](C)O)[C@@H](C)O)[C@@H](C)O [MCT-II] (H-CSNLSTCLLQQLQKLLQKLKQYPRTNTGSGTP-NH2; disulfide 1-7; N-terminus assumed) | adsorb to the surface | 68±2 | 6.7 ± 1.7 | 2.5±0.1×10^4 Å^2 | 22 | 362±10 | 0.01 | – | –
2 | CC(C)C[C@@H]1NC(=O)[C@H](CC(N)=O)NC(=O)CNC(=O)[C@@H](N)CSSC[C@@H](C(=O)N[C@@H](CC(C)C)C(=O)N[C@@H](CC(C)C)C(=O)N[C@@H](CCC(N)=O)C(=O)N[C@@H](CCC(N)=O)C(=O)N[C@@H](Cc2c[nH]c3ccccc23)C(=O)N[C@@H](CCC(N)=O)C(=O)N[C@@H](CCCCN)C(=O)N[C@@H](CC(C)C)C(=O)N[C@@H](CC(C)C)C(=O)N[C@@H](CCC(N)=O)C(=O)N[C@@H](CCCCN)C(=O)N[C@@H](CC(C)C)C(=O)N[C@@H](CCCCN)C(=O)N[C@@H](CCC(N)=O)C(=O)N[C@@H](CC(C)C)C(=O)N2CCC[C@H]2C(=O)N[C@@H](CCCNC(=N)N)C(=O)N[C@H](C(=O)N[C@@H](CC(N)=O)C(=O)N[C@H](C(=O)NCC(=O)N[C@@H](CO)C(=O)NCC(=O)N[C@H](C(=O)N2CCC[C@H]2C(N)=O)[C@@H](C)O)[C@@H](C)O)[C@@H](C)O)NC(=O)[C@H]([C@@H](C)O)NC(=O)[C@H](CO)NC1=O [MCT-I] (H-CGNLSTCLLQQWQKLLQKLKQLPRTNTGSGTP-NH2; disulfide 1-7) | adsorb to the surface | 50±5 | 12.9 ± 4.8 | 2.2±0.2×10^4 Å^2 | 24 | 434±7 | 0.02 | 362 | 0.016
